The source of these data is patent publication US9777005B2 (Takeda Pharmaceutical Company Limited, priority 2012, dated 2017).

The assay concerns the target T1, human M1 receptor (hCHRM1) (Homo sapiens, UniProt P11229).
T1 construct: expressed in transfected cells; host or cells: CHO-K1
T1 sequence (P11229 1-460): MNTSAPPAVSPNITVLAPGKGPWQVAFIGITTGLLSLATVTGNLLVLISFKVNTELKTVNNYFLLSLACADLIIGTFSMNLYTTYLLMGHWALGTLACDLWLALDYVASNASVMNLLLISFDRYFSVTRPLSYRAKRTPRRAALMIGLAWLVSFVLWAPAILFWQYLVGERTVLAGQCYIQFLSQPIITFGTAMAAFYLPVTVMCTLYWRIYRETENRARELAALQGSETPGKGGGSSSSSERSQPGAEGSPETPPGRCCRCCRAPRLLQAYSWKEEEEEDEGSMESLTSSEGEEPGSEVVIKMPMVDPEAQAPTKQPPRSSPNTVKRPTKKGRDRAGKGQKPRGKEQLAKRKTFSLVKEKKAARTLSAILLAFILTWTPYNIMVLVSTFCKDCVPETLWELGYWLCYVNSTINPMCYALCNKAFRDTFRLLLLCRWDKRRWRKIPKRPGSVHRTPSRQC
As to the kind of experiment: Measurement of M1 receptor positive allosteric modulator (M1PAM) activity, calcium fluorescence (FLIPRtetra) in CHO-K1 cells in the presence of acetylcholine at EC20. Format: cell-based. To be noted: in the presence of acetylcholine at EC20 (final 0.6 nM), CHO-K1 cells expressing hCHRM1; for EC50: inflection point of M1PAM activity, read-out: IP value; for activity (%) at 10 μM: test compound 10 μM. In short, it runs like this:
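CHO-K1 cells expressing human M1 were loaded with Fluo-4 AM, and compound was added with acetylcholine at EC20 (final 0.6 nM). Calcium fluorescence was read on FLIPRtetra for 1 min. Activity was normalized to 1 μM acetylcholine (100%) and DMSO (0%), and the curve inflection point was reported as IP.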

Regarding `Cn1cc(-c2ccc(CN3Cc4cccc(Oc5c(F)cc(C#N)cc5F)c4C3=O)cn2)cn1` [Example 378, 3,5-difluoro-4-((2-((6-(1-methyl-1H-pyrazol-4-yl)pyridin-3-yl)methyl)-3-oxo-2,3-dihydro-1H-isoindol-4-yl)oxy)benzonitrile], the EC50 stood at 33 nM and the “activity (%) at 10 μM” value amounted to 98%.

Turning to `Cc1cc(-c2ccc(CN3Cc4ccnc(OCc5ccccc5F)c4C3=O)c(F)c2)cnn1` [Example 344, 4-((2-fluorobenzyl)oxy)-2-(2-fluoro-4-(6-methylpyridazin-4-yl)benzyl)-1,2-dihydro-3H-pyrrolo[3,4-c]pyridin-3-one], the EC50 worked out at 55 nM and the “activity (%) at 10 μM” value is listed as 97%.

On to `Cc1cc(-c2ccc(CN3Cc4ccnc(OCC5CC5)c4C3=O)cc2)ccn1` [Example 339, 4-(cyclopropylmethoxy)-2-(4-(2-methylpyridin-4-yl)benzyl)-1,2-dihydro-3H-pyrrolo[3,4-c]pyridin-3-one], for which the EC50 was determined as 70 nM and the “activity (%) at 10 μM” value was determined as 106%.

Take `Cn1ccc(-c2cc(F)c(CN3Cc4ccnc(O[C@H]5CCC[C@@H]5O)c4C3=O)c(F)c2)n1` (relative stereo) [Example 328, 2-(2,6-difluoro-4-(1-methyl-1H-pyrazol-3-yl)benzyl)-4-((trans-2-hydroxycyclopentyl)oxy)-1,2-dihydro-3H-pyrrolo[3,4-c]pyridin-3-one]: the EC50 worked out at 6.4 nM and the “activity (%) at 10 μM” value came out at 97%.

Consider `Cn1cc(-c2ccc(CN3Cc4cccc(O[C@H]5CCCC(F)(F)[C@@H]5O)c4C3=O)cc2)cn1` (relative stereo) [Example 7, 7-((trans-3,3-difluoro-2-hydroxycyclohexyl)oxy)-2-(4-(1-methyl-1H-pyrazol-4-yl)benzyl)isoindolin-1-one], for which the EC50 is 32 nM and the “activity (%) at 10 μM” value amounted to 114%.

Regarding `Cn1cc(-c2ccc(CN3Cc4cccc(OC[C@H]5CCCO5)c4C3=O)cc2)cn1` [Example 13, 2-(4-(1-methyl-1H-pyrazol-4-yl)benzyl)-7-((2R)-(tetrahydrofuran-2-yl)methoxy)isoindolin-1-one], the EC50 was 43 nM and the “activity (%) at 10 μM” value was found to be 102%.

In the case of `Cn1cc(-c2ccc(CN3Cc4ccnc(Oc5ccc(C(F)(F)F)cc5F)c4C3=O)cc2)cn1` [Example 304, 4-(2-fluoro-4-(trifluoromethyl)phenoxy)-2-(4-(1-methyl-1H-pyrazol-4-yl)benzyl)-1,2-dihydro-3H-pyrrolo[3,4-c]pyridin-3-one], the EC50 was determined as 12 nM and the “activity (%) at 10 μM” value was found to be 93%.

For `Cn1ccc(-c2ccc(CN3Cc4ccnc(OCC5CCCO5)c4C3=O)cc2)n1` (stereo not drawn) [Example 79, 2-(4-(1-methyl-1H-pyrazol-3-yl)benzyl)-4-((tetrahydrofuran-2-yl)methoxy)-1,2-dihydro-3H-pyrrolo[3,4-c]pyridin-3-one], the EC50 was 29 nM and the “activity (%) at 10 μM” value came out at 114%.

For `Cc1nn(C)cc1-c1ccc(CN2Cc3ccnc(O[C@H]4CCCC[C@@H]4O)c3C2=O)cc1` (relative stereo) [Example 267, 2-(4-(1,3-dimethyl-1H-pyrazol-4-yl)benzyl)-4-((trans-2-hydroxycyclohexyl)oxy)-1,2-dihydro-3H-pyrrolo[3,4-c]pyridin-3-one], the EC50 was determined as 2.1 nM and the “activity (%) at 10 μM” value is on record as 94%.

For the molecule `NC(=O)c1ccc(CN2Cc3cccc(Oc4ccc(C(F)(F)F)cc4F)c3C2=O)cc1` [Example 460, 4-((7-(2-fluoro-4-(trifluoromethyl)phenoxy)-1-oxo-1,3-dihydro-2H-isoindol-2-yl)methyl)benzamide], the EC50 is 17 nM and the “activity (%) at 10 μM” value turned out to be 96%.

For the molecule `CNC(=O)c1ccc(CN2Cc3ccnc(Oc4ccc(C(F)(F)F)cc4F)c3C2=O)cn1` [Example 456, 5-((4-(2-fluoro-4-(trifluoromethyl)phenoxy)-3-oxo-1,3-dihydro-2H-pyrrolo[3,4-c]pyridin-2-yl)methyl)-N-methylpyridine-2-carboxamide], the EC50 was 46 nM and the “activity (%) at 10 μM” value is recorded as 91%.

In the case of `Cc1nn(C)cc1-c1ccc(CN2Cc3cccc(O[C@@H]4CCOC[C@H]4O)c3C2=O)cc1` (single isomer, unassigned) [Example 248, 1,5-anhydro-2-deoxy-3-O-(2-(4-(1,3-dimethyl-1H-pyrazol-4-yl)benzyl)-3-oxo-2,3-dihydro-1H-isoindol-4-yl)-threo-pentitol], the EC50 came out at 3 nM and the “activity (%) at 10 μM” value is given as 117%.

For the molecule `NC(=O)c1ccc(CN2Cc3ccnc(Oc4ccc(C5CC5)cc4F)c3C2=O)cc1F` [Example 446, 4-((4-(4-cyclopropyl-2-fluorophenoxy)-3-oxo-1,3-dihydro-2H-pyrrolo[3,4-c]pyridin-2-yl)methyl)-2-fluorobenzamide], the EC50 was 26 nM and the “activity (%) at 10 μM” value came to 107%.

For the molecule `Cn1cc(-c2ccc(CN3Cc4ccnc(Oc5c(F)cc(C#N)cc5F)c4C3=O)c(F)c2)cn1` [Example 386, 3,5-difluoro-4-((2-(2-fluoro-4-(1-methyl-1H-pyrazol-4-yl)benzyl)-3-oxo-2,3-dihydro-1H-pyrrolo[3,4-c]pyridin-4-yl)oxy)benzonitrile], the EC50 was 1.4 nM and the “activity (%) at 10 μM” value is recorded as 86%.

Regarding `Cn1ccc(-c2ccc(CN3Cc4ccnc(O[C@H]5CCC[C@@H]5O)c4C3=O)c(F)c2)n1` (relative stereo) [Example 236, 2-(2-fluoro-4-(1-methyl-1H-pyrazol-3-yl)benzyl)-4-((trans-2-hydroxycyclopentyl)oxy)-1,2-dihydro-3H-pyrrolo[3,4-c]pyridin-3-one], the EC50 was 10 nM and the “activity (%) at 10 μM” value is recorded as 109%.

As for `Cc1cc(-c2cnc(CN3Cc4cccc(Oc5c(F)cccc5F)c4C3=O)c(F)c2)ccn1` [Example 264, 7-(2,6-difluorophenoxy)-2-((5-fluoro-2′-methyl-3,4′-bipyridin-6-yl)methyl)isoindolin-1-one], the EC50 was 140 nM and the “activity (%) at 10 μM” value came to 92%.

For `Cc1cc(-c2ccc(CN3Cc4ccnc(Oc5ccc(C(F)F)cc5F)c4C3=O)cc2)ccn1` [Example 379, 4-(4-(difluoromethyl)-2-fluorophenoxy)-2-(4-(2-methylpyridin-4-yl)benzyl)-1,2-dihydro-3H-pyrrolo[3,4-c]pyridin-3-one], the EC50 came to 14 nM and the “activity (%) at 10 μM” value was 90%.

For the molecule `N#Cc1ccc(CN2Cc3cccc(O[C@H]4CCCC[C@@H]4O)c3C2=O)cc1` (relative stereo) [Example 33, 4-((7-((trans-2-hydroxycyclohexyl)oxy)-1-oxo-1,3-dihydro-2H-isoindol-2-yl)methyl)benzonitrile], the EC50 amounted to 77 nM and the “activity (%) at 10 μM” value is 98%.

Turning to `COc1ccc(F)c(Oc2nccc3c2C(=O)N(Cc2ccc(-c4cn(C)nc4C)cc2F)C3)c1F` [Example 283, 4-(2,6-difluoro-3-methoxyphenoxy)-2-(4-(1,3-dimethyl-1H-pyrazol-4-yl)-2-fluorobenzyl)-1,2-dihydro-3H-pyrrolo[3,4-c]pyridin-3-one], the EC50 is 10 nM and the “activity (%) at 10 μM” value turned out to be 97%.

For `CC(O)c1ccc(Oc2nccc3c2C(=O)N(Cc2ccc(-c4cnn(C)c4)cc2)C3)c(F)c1` (stereo not drawn) [Example 394, 4-(2-fluoro-4-(1-hydroxyethyl)phenoxy)-2-(4-(1-methyl-1H-pyrazol-4-yl)benzyl)-1,2-dihydro-3H-pyrrolo[3,4-c]pyridin-3-one], the EC50 was 7.1 nM and the “activity (%) at 10 μM” value amounted to 109%.

`Cc1cc(C)c(Oc2nccc3c2C(=O)N(Cc2ccc(-c4ccn(C)n4)cc2)C3)c(F)c1` [Example 414, 4-(2-fluoro-4,6-dimethylphenoxy)-2-(4-(1-methyl-1H-pyrazol-3-yl)benzyl)-1,2-dihydro-3H-pyrrolo[3,4-c]pyridin-3-one]: the EC50 was determined as 69 nM and the “activity (%) at 10 μM” value was found to be 103%.

Consider `CCNC(=O)c1ccc(CN2Cc3ccnc(Oc4ccc(C(F)(F)F)cc4F)c3C2=O)cc1F` [Example 436, N-ethyl-2-fluoro-4-((4-(2-fluoro-4-(trifluoromethyl)phenoxy)-3-oxo-1,3-dihydro-2H-pyrrolo[3,4-c]pyridin-2-yl)methyl)benzamide], for which the EC50 worked out at 41 nM and the “activity (%) at 10 μM” value amounted to 106%.

Take `Cc1nn(C)cc1-c1ccc(CN2Cc3ccnc(O[C@H]4CCCC[C@@H]4O)c3C2=O)s1` (relative stereo) [Example 402, 2-((5-(1,3-dimethyl-1H-pyrazol-4-yl)-2-thienyl)methyl)-4-((trans-2-hydroxycyclohexyl)oxy)-1,2-dihydro-3H-pyrrolo[3,4-c]pyridin-3-one]: the EC50 was 4.6 nM and the “activity (%) at 10 μM” value was 104%.

As to `Cc1nn(C)cc1-c1ccc(CN2Cc3ccnc(OCC4CCCO4)c3C2=O)cc1` (stereo not drawn) [Example 78, 2-(4-(1,3-dimethyl-1H-pyrazol-4-yl)benzyl)-4-((tetrahydrofuran-2-yl)methoxy)-1,2-dihydro-3H-pyrrolo[3,4-c]pyridin-3-one], the EC50 came out at 10 nM and the “activity (%) at 10 μM” value worked out at 104%.
